Assay results from PubChem BioAssay (NCI).
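Exposure lasted 48 hours, with cells grown in 96-well plates and compounds tested at five concentrations. GI50 is the concentration that inhibits growth by half. TGI denotes the concentration required for complete inhibition of growth.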

Assays:
Test in all cases: DTP human tumour cell line panel, 48 h
[1] = test system: SK-MEL-28 melanoma
[2] = test system: HS 578T breast
[3] = test system: A549 NSCLC
[4] = test system: BT-549 breast
[5] = test system: UACC-257 melanoma
[6] = test system: CAKI-1 renal
[7] = test system: 786-0 renal
[8] = test system: SF-268 CNS
[9] = test system: HOP-92 NSCLC
[10] = test system: TK-10 renal
[11] = test system: HOP-62 NSCLC
[12] = test system: HCT-15 colon
[13] = test system: NCI/ADR-RES ovarian
[14] = test system: RXF 393 renal
[15] = test system: KM12 colon
[16] = test system: IGROV1 ovarian
[17] = test system: UACC-62 melanoma
[18] = test system: OVCAR-8 ovarian
[19] = test system: MDA-MB-435
[20] = test system: NCI-H522 lung
[21] = test system: M14 melanoma
[22] = test system: RPMI-8226 leukemia
[23] = test system: PC-3 prostate
[24] = test system: OVCAR-5 ovarian
[25] = test system: SNB-75 CNS
[26] = test system: MDA-MB-231 breast
[27] = test system: MCF7 breast

## N#C/C(=C\c1ccc2c(c1)OCO2)n1nnc2ccccc21
[1]
  GI50: 1240 nM
  TGI: 17600 nM
[2]
  GI50: 2530 nM
  TGI: 9360 nM
[3]
  GI50: 991 nM
  TGI: 48100 nM
[4]
  GI50: 938 nM
  TGI: 15000 nM
[5]
  GI50: 6680 nM
  TGI: 62400 nM
[6]
  GI50: 518 nM
  TGI: 13100 nM
[7]
  GI50: 2010 nM
  TGI: 12900 nM
[8]
  GI50: 3220 nM
  TGI: 20500 nM
[9]
  GI50: 810 nM
  TGI: 3310 nM
[10]
  GI50: 2200 nM
  TGI: 8550 nM
[11]
  GI50: 2410 nM
  TGI: 14900 nM
[12]
  GI50: 395 nM
  TGI: 13800 nM
[13]
  GI50: 405 nM
  TGI: 17200 nM
[14]
  GI50: 986 nM
  TGI: 5310 nM
[15]
  GI50: 797 nM
  TGI: > 100000 nM
[16]
  GI50: 716 nM
  TGI: 11800 nM
[17]
  GI50: 450 nM
  TGI: 18500 nM
[18]
  GI50: 1760 nM
  TGI: > 100000 nM
[19]
  GI50: 200 nM
  TGI: 501 nM
[20]
  GI50: 270 nM
  TGI: 15200 nM
[21]
  GI50: 424 nM
  TGI: 23500 nM
[22]
  GI50: 2190 nM
  TGI: > 100000 nM
[23]
  GI50: 1350 nM
  TGI: 24300 nM
[24]
  GI50: 2220 nM
  TGI: 7130 nM
[25]
  GI50: 179 nM
  TGI: 1510 nM
[26]
  GI50: 1700 nM
  TGI: 7730 nM
[27]
  GI50: 417 nM
  TGI: 14100 nM
